Columns and labels:
[1] = Tasting in low fat mayonnaise; settings: 0.5 ppm in low fat mayonnaise (27% fat)
Procedure: (§1) The following formulations were prepared and tasted by trained panelists.
Fat levels between 10-80%
Low fat Mayonnaise (27% Fat)

[2] = Tasting in butter (Blueband halvarine); settings: 1 ppm in Blueband halvarine 39% fat 0.35% salt
Procedure: as §1
Blueband “halvarine” 39% fat 0.35% salt
C18:2-gaba added at 1 ppm.

[3] = Test in pineapple flavoured drink; settings: 1 ppm, water, 8% sugar, 0.1% citric acid, pineapple flavour 0.03%
Source text: Test in Pineapple Flavoured Drink:
Base is water, 8% sugar, 0.1% citric acid and proprietary pineapple flavour at 0.03%

[4] = Comparison in a mango juice drink; settings: 2 ppm, 8% sucrose, 0.1% citric acid, 0.18 g clear mango juice, mango flavour 0.05%
Source text: Comparison in a Mango Juice Drink
Base is 8% sucrose, 0.1% citric acid, 0.18 g clear mango juice, and a proprietary mango flavour at 0.05%.

Test in vanilla milk = settings: 2 ppm, milk 0.15% fat, 4% sucrose, Vaniline flavour 10 ppm + vanilla ext. 0.03%
Source text: Base: Milk 0.15% fat, sweetened with 4% sucrose by weight, flavoured with proprietary
Vaniline flavour @ 10 ppm+Vanilla ext. @ 0.03%

[5] = Test in pear flavoured drink; settings: 1 ppm, water, 7% sugar, 0.1% citric acid, pear flavour 0.025%
Source text: Test in Pear Flavoured Drink:
Base: water, 7% sugar, 0.1% citric acid, proprietary pear flavour at 0.025%

Test on Eru Prestige = settings: 0.5 ppm
[6] = Calve 60% reduced fat mayonnaise; settings: 0.5 ppm, Calve mayonnaise 60% reduced fat
Source text: Calve 60% Reduced Fat Mayonnaise
Base is Calve Mayonnaise 60% reduced fat (market Product)

[7] = UHT milk cream flavoured, non sweetened, different fat levels; settings: 2 ppm, cream flavour 0.03%
Procedure: The following tests were carried out on dairy products processed by fermentation, pasteurization or UHT. The products contain fat, protein and calcium.
UHT Milk Cream Flavoured, Non Sweetened and Different Fat Levels
In a UHT milk containing 0% 1.5% and 3% fat, flavoured with a proprietary cream flavour dosed at 0.03%
C18:2-gaba was added at 2 ppm.
Samples were evaluated by expert tasters.
Tasters were asked to describe the samples focusing on authentic taste , mouthfeel, fullness, salivation, sweetness, juiciness, richness, long lastingness and fattiness.

[8] = Test on Kikkoman soy sauce low salt; settings: 0.5 ppm
Source text: Test on Kikkoman Soy Sauce Low Salt
Base is Kikkoman soy sauce

[9] = Yoghurt cream flavoured non-sweetened, different fat levels; settings: 2 ppm, cream flavour 0.03%
Procedure: Yoghurt Cream Flavoured Non-sweetened And Different Fat Levels
In a Yoghurt containing 0% 1.5% and 3% fat, flavoured with proprietary cream flavour dosed at 0.03%, C18:2-gaba was added at 2 ppm. Samples were evaluated by expert tasters. Tasters were asked to describe the samples focusing on authentic taste, mouthfeel, fullness, salivation, sweetness, juiciness, richness, long lastingness and fattiness.

[10] = Tasting in soy based product (salt reduced kikoman soy sauce)
Procedure: as §1
Salt level pure product between 5-40%
Salt level in application 0.3-1.0%
C18:2-gaba-(0.5 ppm) was added to a 1% diluted salt reduced kikoman soy sauce (9% salt).
C18:2-gaba-(0.5 ppm) was added to pure salt reduced kikoman soy sauce (9% salt).

[11] = Comparison in beef bouillon; settings: 2 ppm, Maggi beef bouillon 1 tablet in 500 ml hot water
Procedure: Comparison in Beef Bouillon
Base is Maggi beef bouillon 1 tablet in 500 ml of hot water

[12] = Mango flavoured still beverage with different levels of juice; settings: 1 ppm, 8% sucrose, 0.1% citric acid, mango flavor 0.05%
Procedure: Mango Flavoured Still Beverage Containing Different Levels Of Juice.
In a Mango flavoured still beverage, sweetened with 8% sucrose and containing 0.1% citric acid and 1%, 4% and 6% clear mango juice flavoured with a proprietary Mango flavour @ 0.05%, C18:2-gaba was added, as such.
All samples were evaluated by expert tasters. Tasters were asked to describe the samples focusing on authentic taste, juicy mouthfeel, enhancement, richness, juiciness, long lastingness, salivation, sweetness.
In a Mango flavoured still beverage, sweetened with 8% sucrose & containing 0.1% citric acid and 1% clear mango juice flavoured with proprietary Mango flavour @ 0.05%, C18:2-gaba was added, as such.
Base is water, 8% sucrose, 0.1% citric acid, 1% clear mango juice (very low juice %) , flavoured with Mango flavor, dosed at 0.05%
In a Mango flavoured still beverage, sweetened with 8% sucrose & containing 0.1% citric acid and 4% clear mango juice flavoured with Mango flavour @ 0.05% , C18:2-gaba and C18:2-Pro were added, as such (separate) and in combination.
Base is water, 8% sucrose, 0.1% citric acid, 4% clear mango juice (30% reduced juice), flavoured with Mango flavor, dosed at 0.05%
A Mango-flavoured still beverage, sweetened with 8% sucrose & containing 0.1% citric acid and 6% clear mango juice flavoured with Mango flavour @ 0.05%, C18:2-gaba
Base is water, 8% sucrose, 0.1% citric acid, 6% clear mango juice (full juice), flavoured with Mango flavor, dosed at 0.05%.

[13] = Tasting in standard chicken bouillon base; settings: 0.5 PPM in standard chicken bouillon base, 0.7% salt, 0.5% fat
Procedure: as §1
Standard Chicken bouillon base, 0.7% salt, 0.5% fat

[14] = Tasting in air expanded base with cheese seasoning; settings: air expanded base 3% fat
Procedure: Air Expanded Base An air expanded base (Rice, wheat, Tapioca, potato, salt, sugar, modified starch), containing 3% fat and flavored with cheese seasoning containing salt, MSG, dairy, organic acids, sugars and flavor. The following compounds were added to the base at the indicated levels and the tasting results are reported: […]

[15] = Tasting of chicken filet fried in oil; settings: 2.0 PPM in 135 gram frying oil (82% fat)
Procedure: Differentiator high temperature 100-250 degrees Celsius in a frying in oil process
C18:2-gaba @ 2.0 PPM in 135 gram frying oil (blue band 82% Fat) 450 gram chicken filet 2 minutes high fire and 5 minutes medium fire.

[16] = Activa strawberry yoghurt; settings: 2 ppm, full fat Activa strawberry flavoured yoghurt
Source text: Activa Strawberry Yoghurt
In a Full fat, Activa strawberry flavoured yoghurt C18:2-gaba

CCCCC/C=C\C/C=C\CCCCCCCC(=O)NCCCC(=O)O [C18:2-gaba]
tasting result (trained panelists) [1]: creamy, thick mouthfeel with a full fat impression | tasting result (trained panelists) [2]: more authentic butter taste, with more mouthfeel | taste description [3]: very ripe, jammy, long lasting and sweet | taste description [4]: full long lasting nice juicy, almost a bit salty | taste description ([4]; listed as C18:2 gaba): fatty skin like, juicy, authentic | taste description (Test in vanilla milk): fatty, long lasting authentic vanilla, vanilla bean taste is enhanced | taste description [5]: long lasting, juicy and fatty skin like very authentic, like eating the fruit instead of drinking a drink | taste description (Test on Eru Prestige): full salty, much more cheese bite, umami, lingering, long lasting | taste description [6]: full, rich , creamy, more egg yolk taste | description by expert tasters ([7]; UHT milk 0% fat): Very creamy, milky, long lasting | description by expert tasters ([7]; UHT milk 1.5% fat): very creamy, milky, long lasting, salivating | description by expert tasters ([7]; UHT milk 3.0% fat): very creamy, milky, long lasting, taste like whipped cream | taste description [8]: much more salty, sweet and long lasting | description by expert tasters ([9]; yoghurt 0% fat): less acdic, slight creamy aftertaste | description by expert tasters ([9]; yoghurt 1.5% fat): very creamy, thick, nice long lasting, whipped cream note | description by expert tasters ([9]; yoghurt 3% fat): less acidic, much more creamy, very long lasting creamy aftertaste | tasting result (trained panelists) ([10]; 0.5 ppm in 1% diluted salt reduced kikoman soy sauce (9% salt)): stronger, more umami, long lasting, richer | tasting result (trained panelists) ([10]; 0.5 ppm in pure salt reduced kikoman soy sauce (9% salt)): strong in body and mouthfeel,and more salty | taste description [11]: salty, savoury, full | description by expert tasters ([12]; 1% clear mango juice): fatty skin-like, very juicy, authentic mango, much more mouthfeel, long lasting mango taste, mouthfeel is close to the full juice product | description by expert tasters ([12]; 4% clear mango juice): fatty skin-like, very juicy, authentic mango, long lasting mango taste, more mouthfeel than the full juice product | description by expert tasters ([12]; 6% clear mango juice (full juice)): fatty skin-like, very thick juicy, authentic mango, long lasting mango taste, rich | tasting result (trained panelists) [13]: Strong, Salty, Umami, mouthfeel | tasting result ([14]; 0.5 ppm): Increased dairy, cheese | tasting result ([14]; 1 ppm): Fatty full, cheesy, cheese crust, long lasting, cover base | taste of the chicken ([15]; 450 gram chicken filet, 2 minutes high fire and 5 minutes medium fire): more juicy, succulent, lingering more white meat | taste of the frying oil ([15]; after frying chicken filet): more savoury golden brown notes | taste description [16]: very creamy, full and fresh strawberry

From patent publication US11832638B2, “N-acyl derivatives of gamma amino-butyric acid and beta alanine as food flavouring compounds” (GIVAUDAN SA, priority 2012, dated 2023)
